For data set [1], the system named is full-thickness skin defect wound surfaces. Put plainly: Effects of cyclic peptide Hst1 on wound repair in mice (Example 10): healing rate, HE/Masson histology, CD31/VEGF immunohistochemistry. The format is in vivo, C57 BL/6 mice. The settings on record: day 10, Masson staining; 0.1 μM Click-Histatin1, 0.1 μM Sortase A-cyclic histatin1, 10 μM Histatin1. The method, then: This example adopted the propargylglycine-Hst1 cyclic peptide (Click-Histatin1) provided in Example 1, a cyclized Hst1 (Sortase A-cyclic histatin1) prepared by the Sortase A enzymatic method provided in Example 4, and a linear peptide Hst1 (Histatin1) to conduct animal experiments to observe the effect of the propargylglycine-Hst1 on the healing rates of the wound surfaces of mice. The concentration of the linear peptide Hst1 was 10 μM, the concentration of the propargylglycine-Hst1 cyclic peptide was 0.1 μM, and the concentration of the cyclized Hst1 prepared by the Sortase A enzymatic method was each 0.1 μM. 12 healthy male special pathogen-free grade C57 BL/6 mice (purchased from Guangdong Experimental Animal Center) of 6-8 weeks old and weighing 22-28 g. They were intraperitoneally injected with 5 ml/kg of 1% pentobarbital sodium for anesthesia. After the mice had no corneal reflex, the hair on their backs was carefully removed and disinfected with alcohol. […] full-thickness skin defect wound surfaces were prepared on the back of each mouse by using a circular skin punch. The 12 mice were divided into a Control (blank) group with 3 mice, a 10 μM linear peptide Hst1 (Histatin1) group with 3 mice, a 0.1 μM propynylglycine-Hst1 cyclic peptide (Click-Histatin1) group with 3 mice, and a 0.1 μM cyclized Hst1 prepared by a Sortase A enzymatic method (Sortase A-cyclic histatin1) group with 3 mice, according to a random number table method. Each wound surface was added with 0.5 ml of four drugs respectively, and administration was conducted every day until the wound surfaces of the experimental groups healed. Photographs were taken on days 0, 3, 5, 7, and 10 after surgery, and wound tissues were sampled on day 10 for subsequent pathological staining. On days 0, 3, 5, 7, and 10 after injury, the general condition of wound healing of the mice was observed and photographed with a digital camera (see FIG. 4), and the wound healing rate was calculated (see FIG. 5). Wound healing rate=(wound area immediately after injury−unhealed wound area at each time point)[…]wound area immediately after injury×100%. The wound specimens were fixed in 4% paraformaldehyde for 48 hours, rinsed with tap water for 10 minutes, dehydrated with graded ethanol, permeabilized with xylene, and embedded in paraffin to prepare 4 μm thick sections. Some sections were taken for HE staining and Masson staining, and observed for the thickness of the granulation tissue, the length of the dermal gap, and the newly grown collagen of the wound surface under an inverted fluorescence microscope at 40×, 100×, 200×, and 400× respectively (see FIGS. 6 and 7). 5 sections were taken from each mouse, and 5 fields of view were selected for each section. Data analysis was performed using the software Image-pro Plus. […] It was added with a rabbit anti-mouse CD31 primary antibody (with a dilution ratio of 1:300) and a mouse anti-VEGF (with a dilution ratio of 1:100), incubated overnight at 4° C., and washed with PBS. […] It was subjected to DAB development, hematoxylin counterstaining. gradient ethanol dehydration, xylene permeabilization, and resin blocking. 5 sections were taken from each mouse, and 5 fields of view were selected for each section. The sections were observed under a 400× inverted fluorescence microscope, and analyzed for the number of CD31-positive blood vessels (see FIG. 8) and VEGF expression amounts (see FIG. 9, shown in brown) by using Image-pro Plus software. The measurement data were expressed by M±SD, and the data were analyzed by one-way analysis of variance (ANOVA) and an independent samples T-test with SPSS 20.0 software to detect whether the differences among the groups were statistically significant, and a Bonferroni test was used for pairwise comparison. *p<0.05. **p<0.01. ***p<0.001 meant the difference was statistically significant, and p>0.05 was not statistically significant.

A further data set deals with fibroblasts (NIH/3T3). Put plainly: Scratching experiment, Hst1 cyclic peptides (Examples 11 and 12). It is filed as cell-based. The note with it: dosage needed to achieve the same pharmaceutical effect in the scratch experiment. The method, then: At the same time, fibroblasts (NIH/3T3; GNM 6; Chinese Academy of Sciences, China) were plated into a 6-well plate at a number of 2×10^6/well and cultured to a density of 70-80%. The cells were starved for 8-12 hours before the experiment. Mitomycin C (Sigma Aldrich, USA) was added into the culture medium to make its concentration in the culture medium be 15 μg/ml, and the culture medium was changed after 3 hours of treatment. Scratching was conducted with a 200 μl pipette tip perpendicular to the bottom of the well-plate with the same force, and the well-plate was rinsed with PBS twice after scratching. Each well was added with an appropriate amount of a DEME medium (10% FBS, 1% double antibody), and except for the blank control group, each well was added with 10 μM of the linear Hst1, 0.01 μM of the propynylglycine-Hst1 cyclic peptide, 0.1 μM of the propynylglycine-Hst1 cyclic peptide and 1 μM of the propynylglycine-Hst1 cyclic peptide as experimental groups. At 0 hour, the cells in each group were photographed by using a microscope (Olympus, Japan). […] The scratched area of each group was calculated by using imageJ (Rawak Software, Inc. Germany) software, and the scratch area at 0 hour was an initial scratch area. The scratch healing rate was calculated as follows: […]

A short description of data set [2]: Solubility of prepared cyclic peptide. It is filed as physicochemical.

Turning to “Sortase A-cyclic histatin1: cyclized Hst1 prepared by the literature Sortase A enzymatic method (Bolscher, FASEB Journal) (DSHEKRHHGYRRKFHEKHHSHREFPFYGDYGSNYLYDN; Histatin-1 cyclized via sortase A; UniProt P15515 20-57, looked up) [reference compound]”, in data set [1], the “expression amount of collagen at the wound surfaces” value is listed as “significantly higher than that of the Control group”. Also, in the data set with fibroblasts (NIH/3T3), the “Dosage of agents required for scratch test” value stood at 0.12 µM. In addition, the solubility entry in data set [2] is given as “poor solubility”.

Source of the values: patent publication US20240336658A1, “CYCLIC PEPTIDE AND PREPARATION METHOD AND USE THEREOF” (HANGZHOU HUIBO SCIENCE AND TECHNOLOGY CO., LTD, priority 2021, published 2024).
